# Laboratory results from patent US10899754B2, “Modulators of indoleamine 2,3-dioxygenase” (GLAXOSMITHKLINE INTELLECTUAL PROPERTY DEVELOPMENT LIMITED, priority 2016, dated 2021).
# Where two headings read alike, the source gives them in different places.
# Key:
# [1] = target: T1, indoleamine 2, 3-dioxygenase (IDO1) (Homo sapiens, UniProt P14902); test: IDO1 PBMC RapidFire MS assay (kynurenine detection by mass spectrometry); format: cell-based; parameters: to induce the expression of indoleamine 2, 3-dioxygenase (IDO1); host or cells: human PBMC stimulated with IFN-gamma and LPS; conditions: human PBMC stimulated with IFN-γ and LPS, 2 days; for IC50: pIC50, read-out: PBMC PXC50 (converted)
# T1 sequence (P14902 whole entry): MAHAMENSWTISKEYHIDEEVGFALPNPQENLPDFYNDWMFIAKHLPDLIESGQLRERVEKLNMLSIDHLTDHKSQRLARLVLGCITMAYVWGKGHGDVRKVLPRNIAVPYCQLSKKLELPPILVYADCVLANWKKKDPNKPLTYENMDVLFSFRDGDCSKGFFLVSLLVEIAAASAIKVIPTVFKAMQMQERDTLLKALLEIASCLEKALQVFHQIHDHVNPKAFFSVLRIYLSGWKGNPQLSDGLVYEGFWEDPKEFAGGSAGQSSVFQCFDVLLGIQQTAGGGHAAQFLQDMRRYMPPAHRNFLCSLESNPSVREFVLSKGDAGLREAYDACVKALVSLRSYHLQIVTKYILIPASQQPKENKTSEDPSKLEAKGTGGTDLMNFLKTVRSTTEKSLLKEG
# In short: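 PBMCs (50,000 cells/well) stimulated with IFN-γ 100 ng/ml plus LPS 50 ng/ml, treated with 11-point 3-fold compound series for 2 days at 37° C. Supernatant kynurenine measured by RapidFire MS, normalised to internal standard; parallel cytotoxicity by CellTiter-Glo luminescence; curves fitted for XC50.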
# [2] = tested on: human peripheral blood mononuclear cells (PBMC); test: PBMC cytotoxicity assay (CellTiter-Glo); format: cell-based; conditions: 2 days, pCC50
# In short: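 Human PBMC (50,000 cells/well) stimulated with IFN-γ 100 ng/ml and LPS 50 ng/ml were exposed to 11-point 3-fold compound dilutions for 2 days at 37 °C, 5% CO2. Viability read by CellTiter-Glo ATP luminescence and normalized to no-cell and stimulated-DMSO controls. XC50 derived by four-parameter fit.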
# ePL tagged IDO1 = target: T2, ePL tagged IDO1 (Homo sapiens, UniProt P14902); test: CETSA (Cellular Thermal Shifting assay) in Hela cells; format: binding; conditions: BacMam ePL tagged IDO1, 3 hours at 37° C., heated at 53° C. for 3 min
# T2 construct: expressed in transfected cells; host or cells: HeLa cells transduced with BacMam virus
# T2 sequence (P14902 whole entry): as above
# Experimental: Cellular Thermal Shifting assays were used to directly monitor the ligand binding to target proteins in cells. Hela cells were transduced with BacMam virus expressing ePL tagged IDO1 overnight. The cells were then plated over the compounds for 3 hours at 37° C. in cell culture medium containing 1% FBS. The plates were then sealed and heated at 53° C. for 3 min. InCell Hunter reagents were added and luminescence was read in 90 min.
# naive CD4+CD25- T cells = conditions: co-culture with DCs; cited from earlier work
# PAN02 pancreatic cells = conditions: orally dosed, cited from earlier work
# [3] = tested on: human epithelial HeLa cells; test: HeLa cytotoxicity assay (CellTiter-Glo); format: cell-based; conditions: pCC50
# In short: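 HeLa cells (5,000/well) stimulated with 10 nM IFN-γ, exposed to 11-point 3-fold compound dilutions for 2 days at 37 °C; viability by CellTiter-Glo ATP luminescence. Normalized to cell-free (100% cytotoxicity) and stimulated-cell DMSO (0%) controls; four-parameter fit gives pCC50.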
# [4] = target: T1, indoleamine 2, 3-dioxygenase (IDO1); test: IDO1 HeLa RapidFire MS assay (kynurenine detection by mass spectrometry); format: cell-based; parameters: to induce the expression of indoleamine 2, 3-dioxygenase (IDO1); conditions: HeLa cells, pIC50, read-out: IDO1_HELA_PXC50 (converted)
# In short: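 Compound potency reported as pIC50 from kynurenine/internal-standard ratio (RapidFire MS) in supernatant of IFN-γ-induced (10 nM) HeLa cells, 5,000 per well, after 2 days' treatment with 11-point dilutions. Cytotoxicity in the same format by luminescent ATP detection, reported as pCC50.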
SMILES,IC50 [1],EC50 (ePL tagged IDO1; read-out: pXC50_1 (converted)),IC50 [4],PBMC TOX PXC50 [2],HELA_IDO1_TOX_PXC50 [3],further results
"CC(C)CN(CC(C)C)c1ccc(C2(CC(=O)O)CC2)cc1Nc1nc(C(F)(F)F)ns1 [Example 110, 2-(1-(4-(diisobutylamino)-3-((3-(trifluoromethyl)-1,2,4-thiadiazol-5-yl)amino)phenyl)cyclopropyl)acetic Acid]",–,–,–,5.2,–,PBMC PXC50 ([1]; pIC50): 8.5; pXC50_1 (ePL tagged IDO1): 6.89; pXC50_2 (ePL tagged IDO1): 6.86
"NS(=O)(=O)NCCNc1nonc1C(=NO)Nc1ccc(F)c(Br)c1 [INCB204360, epacadostat]",–,–,–,–,–,"Conversion of naive CD4+CD25- T cells into CD4+FoxP3+ Tregs (naive CD4+CD25- T cells): blocked the conversion; Inhibition of tumor growth (PAN02 pancreatic cells; PAN02 pancreatic cells, immunocompetent mice): significant dose-dependent inhibition of tumor growth; Effect against tumor (PAN02 pancreatic cells; same tumor (PAN02) implanted in immune-deficient mice): without effect"
"CC(C)CN(c1ccc(-c2ccccc2C(=O)NCCCCCN)cc1Nc1nc(C(F)(F)F)ns1)C1CCCCC1 [example 283, N-(5-aminopentyl)-4′-[cyclohexyl(2-methylpropyl)amino]-3′-{[3-(trifluoromethyl)-1,2,4-thiadiazol-5-yl]amino}-[1,1′-biphenyl]-2-carboxamide]",–,> 100000 nM,5010 nM,–,<5,–
"COc1ccc2[nH]c(Nc3cc(-c4ccccc4C(=O)O)ccc3N(CC(C)C)C3CCCCC3)nc2c1 [example 287, 4′-[cyclohexyl(2-methylpropyl)amino]-3′-[(5-methoxy-1H-1,3-benzodiazol-2-yl)amino]-[1,1′-biphenyl]-2-carboxylic acid]",7.94 nM,–,7.94 nM,<5,<5,–
"CC(C)CN(CC(C)C)c1ccc(-c2ccccc2C(=O)O)cc1Nc1nc(C2CC2)ns1 [example 288, 4′-[bis(2-methylpropyl)amino]-3′-[(3-cyclopropyl-1,2,4-thiadiazol-5-yl)amino]-[1,1′-biphenyl]-2-carboxylic acid]",100 nM,–,316 nM,<5,<5,–
"CC(C)CN(c1ccc(-c2cnccc2C(=O)O)cc1Nc1nc2ccccc2o1)C1CCCCC1 [example 289, 3-{3-[(1,3-benzoxazol-2-yl)amino]-4-[cyclohexyl(2-methylpropyl)amino]phenyl}pyridine-4-carboxylic acid]",501 nM,–,1260 nM,<5,<5,–
"CC(C)CN(c1ccc(-c2cccnc2C(=O)O)cc1Nc1nc2ccccc2o1)C1CCCCC1 [example 290, 3-{3-[(1,3-benzoxazol-2-yl)amino]-4-[cyclohexyl(2-methylpropyl)amino]phenyl}pyridine-2-carboxylic acid]",50.1 nM,–,126 nM,<5,<5,–
"CC(C)CN(c1ccc(-c2ccccc2C(=O)O)cc1Nc1nc2ccccc2o1)C1CCOCC1 [example 291, 3′-[(1,3-benzoxazol-2-yl)amino]-4′-[(2-methylpropyl)(oxan-4-yl)amino]-[1,1′-biphenyl]-2-carboxylic acid]",126 nM,–,100 nM,<5,<5,–
"CC(C)CN(CC(C)C)c1ccc(-c2ccccc2C(=O)O)cc1Nc1nc(Cl)ns1 [example 294, 4′-[bis(2-methylpropyl)amino]-3′-[(3-chloro-1,2,4-thiadiazol-5-yl)amino]-[1,1′-biphenyl]-2-carboxylic acid]",20 nM,–,39.8 nM,<5,<5,–
"CC(C)CN(CC(C)C)c1ccc(-c2ccccc2C(=O)O)cc1Nc1nc2ccccc2[nH]1 [example 297, 3′-[(1H-1,3-benzodiazol-2-yl)amino]-4′-[bis(2-methylpropyl)amino]-[1,1′-biphenyl]-2-carboxylic acid]",20 nM,–,50.1 nM,<5,<5,–
"Cc1nnc(Nc2cc(-c3ccccc3C(=O)O)ccc2N(CC(C)C)CC(C)C)s1 [example 298, 4′-[bis(2-methylpropyl)amino]-3′-[(5-methyl-1,3,4-thiadiazol-2-yl)amino]-[1,1′-biphenyl]-2-carboxylic acid]",39.8 nM,–,251 nM,<5,<5,–
"CC(C)CN(c1ccc(-c2ccccc2C(=O)O)cc1Nc1nc(C(F)(F)F)cs1)C1CCCCC1 [example 299, 4′-[cyclohexyl(2-methylpropyl)amino]-3′-{[4-(trifluoromethyl)-1,3-thiazol-2-yl]amino}-[1,1′-biphenyl]-2-carboxylic acid]",6.31 nM,–,15.8 nM,<5,<5,–

# More lines, main results first:
IC50 [1],EC50 (ePL tagged IDO1; read-out: pXC50_1 (converted)),IC50 [4],SMILES,PBMC TOX PXC50 [2],HELA_IDO1_TOX_PXC50 [3],further results
0.631 nM,13.8 nM,–,"CC(C)CN(c1ccc([C@H](C)CC(=O)O)cc1Nc1ccc(Cl)nc1)C1CCOCC1 [Example 6, (R)-3-(3-((6-chloropyridin-3-yl)amino)-4-(isobutyl(tetrahydro-2H-pyran-4-yl)amino)phenyl)butanoic Acid]",<5,–,EC50 (ePL tagged IDO1; read-out: pXC50_2 (converted)): 20.9 nM
1 nM,112 nM,–,"CC(C)CN(c1ccc([C@H](C)CC(=O)O)cc1Nc1ccc(Cl)nn1)C1CCOCC1 [Example 11, (R)-3-(3-((6-chloropyridazin-3-yl)amino)-4-(isobutyl(tetrahydro-2H-pyran-4-yl)amino)phenyl)butanoic Acid]",<5,–,EC50 (ePL tagged IDO1; read-out: pXC50_2 (converted)): 191 nM
1.58 nM,257 nM,–,"CC(C)CN(c1ccc([C@H](C)CC(=O)O)cc1Nc1ccc(C#N)cn1)C1CCOCC1 [Example 16, (R)-3-(3-((5-cyanopyridin-2-yl)amino)-4-(isobutyl(tetrahydro-2H-pyran-4-yl)amino)phenyl)butanoic Acid]",<5,–,EC50 (ePL tagged IDO1; read-out: pXC50_2 (converted)): 316 nM
0.631 nM,1.7 nM,–,"CC(C)CN(c1ccc([C@H](C)CC(=O)O)cc1Nc1nc(C(F)(F)F)ns1)[C@H]1CC[C@H](O)CC1 [Example 44, (R)-3-(4-(((1r,4R)-4-hydroxycyclohexyl) (isobutyl)amino)-3-((3-(trifluoromethyl)-1,2,4-thiadiazol-5-yl)amino)phenyl)butanoic Acid]",<5,–,–
1.58 nM,1.7 nM,–,CO[C@H]1CC[C@@H](N(CC(C)C)c2ccc([C@H](C)CC(=O)O)cc2Nc2nc(C(F)(F)F)n[nH]2)CC1 [Example 51],<5,–,–
2 nM,72.4 nM,–,"CC(C)CC(=O)N1CCC(N(CC(C)C)c2ccc([C@H](C)CC(=O)O)cc2Nc2nc(C(F)(F)F)ns2)CC1 [Example 67, (R)-3-(4-(isobutyl(1-(3-methylbutanoyl)piperidin-4-yl)amino)-3-((3-(trifluoromethyl)-1,2,4-thiadiazol-5-yl)amino)phenyl)butanoic Acid]",<5,–,EC50 (ePL tagged IDO1; read-out: pXC50_2 (converted)): 50.1 nM
2.51 nM,–,3.98 nM,CC(C)CN(c1ccc([C@@H](C)CC(=O)O)cc1Nc1ccnc(Cl)n1)C1CCCCC1 [example 300],<5,<5,–
